Measured values from US11827627B2, “N-(hydroxyalkyl (hetero)aryl) tetrahydrofuran carboxamides as modulators of sodium channels” (VERTEX PHARMACEUTICALS INCORPORATED, priority 2021, dated 2023).

Target: human NaV 1.8 (Homo sapiens, UniProt Q9Y5Y9)
Assay: E-VIPR assay detecting and measuring NaV inhibition properties
Assay type: cell-based
Settings: HEK cells expressing a truncated form of human NaV 1.8; electrical stimulation, membrane potential FRET dyes
How it was run: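 HEK cells expressing truncated full-activity NaV 1.8, co-transduced with KIR2.1 BacMam, seeded 16-20 h before assay. Electrical stimulation with FRET membrane-potential dyes (CC2-DMPE/DiSBAC6(3)) in HEPES-buffered bath solutions; 25% human serum final.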

Sequence of human NaV 1.8 (Q9Y5Y9 126-1722 limits assumed): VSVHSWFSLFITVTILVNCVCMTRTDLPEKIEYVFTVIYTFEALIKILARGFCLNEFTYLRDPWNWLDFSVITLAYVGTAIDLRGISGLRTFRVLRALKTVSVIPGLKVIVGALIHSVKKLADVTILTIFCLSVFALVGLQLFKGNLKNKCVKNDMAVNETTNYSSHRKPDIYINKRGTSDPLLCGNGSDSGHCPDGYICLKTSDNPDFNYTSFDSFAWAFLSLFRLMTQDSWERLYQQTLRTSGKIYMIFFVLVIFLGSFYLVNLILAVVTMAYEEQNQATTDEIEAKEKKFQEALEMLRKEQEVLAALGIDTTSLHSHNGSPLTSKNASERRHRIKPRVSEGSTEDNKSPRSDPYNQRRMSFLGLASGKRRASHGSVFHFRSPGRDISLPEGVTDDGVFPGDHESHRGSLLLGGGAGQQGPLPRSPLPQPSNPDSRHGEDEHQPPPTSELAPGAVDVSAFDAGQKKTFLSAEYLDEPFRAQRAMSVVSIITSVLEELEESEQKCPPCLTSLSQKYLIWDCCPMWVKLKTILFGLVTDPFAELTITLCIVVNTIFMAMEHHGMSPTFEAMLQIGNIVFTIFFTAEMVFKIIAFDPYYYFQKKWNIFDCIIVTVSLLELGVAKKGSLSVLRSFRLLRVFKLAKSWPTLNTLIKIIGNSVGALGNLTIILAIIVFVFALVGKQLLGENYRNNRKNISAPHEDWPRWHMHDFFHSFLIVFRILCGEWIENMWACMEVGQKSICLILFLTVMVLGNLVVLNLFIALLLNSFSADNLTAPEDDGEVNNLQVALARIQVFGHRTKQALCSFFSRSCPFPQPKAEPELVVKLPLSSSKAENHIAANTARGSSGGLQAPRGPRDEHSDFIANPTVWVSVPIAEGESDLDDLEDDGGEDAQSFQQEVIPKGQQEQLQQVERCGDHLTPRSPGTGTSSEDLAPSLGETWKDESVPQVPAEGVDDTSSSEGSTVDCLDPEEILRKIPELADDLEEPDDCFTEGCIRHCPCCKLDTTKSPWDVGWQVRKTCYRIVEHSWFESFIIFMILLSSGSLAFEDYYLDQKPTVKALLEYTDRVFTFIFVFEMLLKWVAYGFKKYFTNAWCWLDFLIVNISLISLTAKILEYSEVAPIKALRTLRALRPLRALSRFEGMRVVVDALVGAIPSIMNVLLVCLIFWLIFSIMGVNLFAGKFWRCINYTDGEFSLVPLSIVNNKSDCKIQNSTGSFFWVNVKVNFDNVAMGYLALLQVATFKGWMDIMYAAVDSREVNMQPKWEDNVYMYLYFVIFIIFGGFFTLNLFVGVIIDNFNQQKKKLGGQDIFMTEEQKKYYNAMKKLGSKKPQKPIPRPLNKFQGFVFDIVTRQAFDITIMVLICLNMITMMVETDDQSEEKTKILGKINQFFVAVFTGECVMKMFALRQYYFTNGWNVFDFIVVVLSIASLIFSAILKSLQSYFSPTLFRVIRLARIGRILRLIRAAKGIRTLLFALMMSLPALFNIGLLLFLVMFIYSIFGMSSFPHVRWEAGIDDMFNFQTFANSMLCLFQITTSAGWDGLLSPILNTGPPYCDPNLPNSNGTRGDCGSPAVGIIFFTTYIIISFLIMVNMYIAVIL

SMILES | IC50
COc1nc(C(F)F)ccc1[C@H]1[C@H](C(=O)Nc2ccc(CO)nc2)O[C@@](C)(C(F)(F)F)[C@H]1C (stereo in doubt) [Compound 88, rel-(2R,3S,4S,5R)-3-(6-(difluoromethyl)-2-methoxypyridin-3-yl)-N-(6-(hydroxymethyl)pyridin-3-yl)-4,5-dimethyl-5-(trifluoromethyl)tetrahydrofuran-2-carboxamide] | 100 to 1000 nM
COc1nc(C(F)F)ccc1[C@@H]1[C@@H](C(=O)Nc2ccc(CO)nc2)O[C@](C)(C(F)(F)F)[C@@H]1C (stereo in doubt) [Compound 89, rel-(2S,3R,4R,5S)-3-(6-(difluoromethyl)-2-methoxypyridin-3-yl)-N-(6-(hydroxymethyl)pyridin-3-yl)-4,5-dimethyl-5-(trifluoromethyl)tetrahydrofuran-2-carboxamide] | ≥ 1000 nM
CCOc1c([C@H]2[C@H](C(=O)Nc3ccc([C@H](O)CO)nc3)O[C@@](C)(C(F)(F)F)[C@H]2C)ccc(F)c1F [Compound 6, (2R,3S,4S,5R)-N-(6-((S)-1,2-dihydroxyethyl)pyridin-3-yl)-3-(2-ethoxy-3,4-difluorophenyl)-4,5-dimethyl-5-(trifluoromethyl)tetrahydrofuran-2-carboxamide] | < 10 nM
CCOc1c([C@H]2[C@H](C(=O)Nc3ccc([C@@H](O)CO)nc3)O[C@@](C)(C(F)(F)F)[C@H]2C)ccc(F)c1F [Compound 7, (2R,3S,4S,5R)-N-(6-((R)-1,2-dihydroxyethyl)pyridin-3-yl)-3-(2-ethoxy-3,4-difluorophenyl)-4,5-dimethyl-5-(trifluoromethyl)tetrahydrofuran-2-carboxamide] | < 10 nM
COc1c([C@H]2[C@H](C(=O)Nc3cnc(CO)nc3)O[C@@](C)(C(F)(F)F)[C@H]2C)ccc(F)c1F [Compound 15, (2R,3S,4S,5R)-3-(3,4-difluoro-2-methoxyphenyl)-N-(2-(hydroxymethyl)pyrimidin-5-yl)-4,5-dimethyl-5-(trifluoromethyl)tetrahydrofuran-2-carboxamide] | < 10 nM
COc1c([C@H]2[C@H](C(=O)Nc3ccc(CO)nc3)O[C@@](C)(C(F)(F)F)[C@H]2C)ccc(OC(F)F)c1F [Compound 18, (2R,3S,4S,5R)-3-(4-(difluoromethoxy)-3-fluoro-2-methoxyphenyl)-N-(6-(hydroxymethyl)pyridin-3-yl)-4,5-dimethyl-5-(trifluoromethyl)tetrahydrofuran-2-carboxamide] | 10 to 100 nM
COc1c([C@H]2[C@H](C(=O)Nc3cnc(CO)nc3)O[C@@](C)(C(F)(F)F)[C@H]2C)ccc(OC(F)F)c1F [Compound 19, (2R,3S,4S,5R)-3-(4-(difluoromethoxy)-3-fluoro-2-methoxyphenyl)-N-(2-(hydroxymethyl)pyrimidin-5-yl)-4,5-dimethyl-5-(trifluoromethyl)tetrahydrofuran-2-carboxamide] | 10 to 100 nM
C[C@H]1[C@@H](c2ccc(F)c(F)c2O)[C@H](C(=O)Nc2ccc([C@@H](O)CO)nc2)O[C@@]1(C)C(F)(F)F [Compound 36, (2R,3S,4S,5R)-3-(3,4-difluoro-2-hydroxyphenyl)-N-(6-((R)-1,2-dihydroxyethyl)pyridin-3-yl)-4,5-dimethyl-5-(trifluoromethyl)tetrahydrofuran-2-carboxamide] | 100 to 1000 nM
C[C@H]1[C@@H](c2ccc(F)c(F)c2OCCF)[C@H](C(=O)Nc2ccc([C@@H](O)CO)nc2)O[C@@]1(C)C(F)(F)F [Compound 37, (2R,3S,4S,5R)-3-(3,4-difluoro-2-(2-fluoroethoxy)phenyl)-N-(6-((R)-1,2-dihydroxyethyl)pyridin-3-yl)-4,5-dimethyl-5-(trifluoromethyl)tetrahydrofuran-2-carboxamide] | < 10 nM
C[C@H]1[C@@H](c2ccc(F)c(F)c2O)[C@H](C(=O)Nc2cnc(CO)nc2)O[C@@]1(C)C(F)(F)F [Compound 39, (2R,3S,4S,5R)-3-(3,4-difluoro-2-hydroxyphenyl)-N-(2-(hydroxymethyl)pyrimidin-5-yl)-4,5-dimethyl-5-(trifluoromethyl)tetrahydrofuran-2-carboxamide] | ≥ 1000 nM
COc1c([C@H]2[C@H](C(=O)Nc3ccc([C@@H](O)CO)[n+]([O-])c3)O[C@@](C)(C(F)(F)F)[C@H]2C)ccc(F)c1F [Compound 60, 5-((2R,3S,4S,5R)-3-(3,4-difluoro-2-methoxyphenyl)-4,5-dimethyl-5-(trifluoromethyl)tetrahydrofuran-2-carboxamido)-2-((R)-1,2-dihydroxyethyl)pyridine 1-oxide] | < 10 nM

Continued, values first:

IC50 | SMILES
< 10 nM | [2H]C([2H])([2H])Oc1c([C@H]2[C@H](C(=O)Nc3ccc([C@@H](O)CO)nc3)O[C@@](C)(C(F)(F)F)[C@H]2C)ccc(F)c1F [Compound 8, (2R,3S,4S,5R)-3-(3,4-difluoro-2-(methoxy-d3)phenyl)-N-(6-((R)-1,2-dihydroxyethyl)pyridin-3-yl)-4,5-dimethyl-5-(trifluoromethyl)tetrahydrofuran-2-carboxamide]
10 to 100 nM | CC(C)Oc1c(C2C(C(=O)Nc3cnc(C(O)CO)nc3)OC(C)(C(F)(F)F)C2C)ccc(F)c1F (centres unmarked) [Compound 9]
< 10 nM | COc1c([C@H]2[C@H](C(=O)Nc3ccc(CO)nc3)O[C@@](C)(C(F)(F)F)[C@H]2C)ccc(F)c1F [Compound 14, (2R,3S,4S,5R)-3-(3,4-difluoro-2-methoxyphenyl)-N-(6-(hydroxymethyl)pyridin-3-yl)-4,5-dimethyl-5-(trifluoromethyl)tetrahydrofuran-2-carboxamide]
< 10 nM | C[C@H]1[C@@H](c2ccc(F)c(F)c2OCC(F)F)[C@H](C(=O)Nc2ccc([C@@H](O)CO)nc2)O[C@@]1(C)C(F)(F)F [Compound 38, (2R,3S,4S,5R)-3-(2-(2,2-difluoroethoxy)-3,4-difluorophenyl)-N-(6-((R)-1,2-dihydroxyethyl)pyridin-3-yl)-4,5-dimethyl-5-(trifluoromethyl)tetrahydrofuran-2-carboxamide]
< 10 nM | COc1c([C@H]2[C@H](C(=O)Nc3cnc(CO)c(F)c3)O[C@@](C)(C(F)(F)F)[C@H]2C)ccc(F)c1F [Compound 83, (2R,3S,4S,5R)-3-(3,4-difluoro-2-methoxyphenyl)-N-(5-fluoro-6-(hydroxymethyl)pyridin-3-yl)-4,5-dimethyl-5-(trifluoromethyl)tetrahydrofuran-2-carboxamide]
< 10 nM | COc1c([C@H]2[C@H](C(=O)Nc3ccc([C@@H](C)O)nc3)O[C@@](C)(C(F)(F)F)[C@H]2C)ccc(F)c1F [Compound 84, (2R,3S,4S,5R)-3-(3,4-difluoro-2-methoxyphenyl)-N-(6-((R)-1-hydroxyethyl)pyridin-3-yl)-4,5-dimethyl-5-(trifluoromethyl)tetrahydrofuran-2-carboxamide]
10 to 100 nM | COc1c([C@H]2[C@H](C(=O)Nc3ccc([C@H](C)O)nc3)O[C@@](C)(C(F)(F)F)[C@H]2C)ccc(F)c1F [Compound 85, (2R,3S,4S,5R)-3-(3,4-difluoro-2-methoxyphenyl)-N-(6-((S)-1-hydroxyethyl)pyridin-3-yl)-4,5-dimethyl-5-(trifluoromethyl)tetrahydrofuran-2-carboxamide]
10 to 100 nM | COc1c([C@H]2[C@H](C(=O)Nc3cnc(CO)cn3)O[C@@](C)(C(F)(F)F)[C@H]2C)ccc(F)c1F [Compound 86, (2R,3S,4S,5R)-3-(3,4-difluoro-2-methoxyphenyl)-N-(5-(hydroxymethyl)pyrazin-2-yl)-4,5-dimethyl-5-(trifluoromethyl)tetrahydrofuran-2-carboxamide]
100 to 1000 nM | COc1c([C@H]2[C@H](C(=O)Nc3cnc(CO)c(CO)c3)O[C@@](C)(C(F)(F)F)[C@H]2C)ccc(F)c1F [Compound 87, (2R,3S,4S,5R)-N-(5,6-bis(hydroxymethyl)pyridin-3-yl)-3-(3,4-difluoro-2-methoxyphenyl)-4,5-dimethyl-5-(trifluoromethyl)tetrahydrofuran-2-carboxamide]
